Laboratory results as given in patent US7150876B2, “Methods for stabilizing ingredients within cosmetics, personal care and household products” (Merck Patent GmbH, priority 2004, dated 2006).

How the values were obtained:
[1] = Singlet oxygen quenching (RNO bleaching at 440 nm, methylene blue sensitizer, UV A); format: biochemical; conditions: for Singlet oxygen scavenging behaviour: FIG. 3; for IC50% (μg/ml), singlet oxygen quenching ability: RNO bleaching at 440 nm, 20 min UV A
Protocol: A solution of N,N-dimethyl-p-nitrosoaniline (RNO) and histidine and a known sensitizer (e.g. methylene blue) is exposed to UV A. Singlet oxygens generated under UV A induce a bleaching of RNO which can be measured spectrophotometrically at 440 nm. The efficiency of test products in terms of singlet oxygen scavenging is measured at 440 nm for various concentrations.
All measurements were performed at room temperature (24 C) with a Beckman Coulter DU-640 spectrophotometer at a scan speed of 120 nm/min with a spectral range from 300 to 700 nm.
150, Sigma-Aldrich • RNO (19 mg) dissolved in 50 ml of Buffer solution subsequent dilution by factor 25 in de-ionized water. • L-Histidine Solution (40 mM) • Mol. Wt. […] 320, Sigma-Aldrich • 5 mg are dissolved in distilled water (100 ml) subsequent dilution at 6.4 ml in 25 ml of de-ionized water. b) Antioxidant Solutions: • Ascorbic acid (0.5 mM) • Mol. Wt.
The stock solutions were added in an orderly manner with quantities according to the table below as to obtain a final total volume of 4.5 ml for each preparation. First, the RNO buffered solution was taken, followed by addition of L-Histidine and the sensitizer Methylene Blue. Then, the antioxidant solution was added and topped off to 4.5 ml total volume with buffer solution. This preparation was exposed to UV A radiation (˜35 W/m^2) for 20 min to generate singlet oxygens. The light absorption spectra were then recorded and the optical density measured at 440 nm (corresponding to RNO). The inverse of the light absorbances at 440 nm is then plotted as a function of the concentration in antioxidant.

[2] = Color change of Menthyl anthranilate in solution under sun simulator; format: physicochemical; conditions: menthyl anthranilate:stabilizer 1:5, FIG. 2
Protocol: (§1) In Solution: Solutions in ethanol are prepared at respective concentrations of photosensitive materials and photostabilizer (typically 1:1 to 1:5 in weight %). Solutions are exposed to a sun simulator (754 W/m^2, 2 MED/h,) for various durations and light absorption spectra recorded for each sample at given times. The amount of photosensitive materials remaining in solution is calculated from the ratio of their maximal absorption band (λmax), before and after irradiation.
Color Change of Menthyl Anthranilate Under Sun Simulator With and Without Diethylhexyl Syringylidene Malonate in Solution

[3] = Photostability of β carotene in lotion at room temperature, visible light, one month; conditions: room temperature storage
[4] = Photostabilization of Guaiazulene in ethanolic solution under sun simulator; format: physicochemical; conditions: for Relative absorption of Guaiazulene at 600 nm (%): ethanolic solution, sun simulator
Protocol: as §1, with “Solutions are exposed to a sun simulator (754 W/m^2, 2 MED/h,) for various durations and light absorption spectra recorded for each sample at given times.” left out
(§2) Amount of energy: 10 mJoules/Cm^2=1 MED
Photostabilization Results of Guaiazulene in Ethanolic Solution

[5] = Photostabilization of natural Tocopherols in ethanolic solution under sun simulator; format: physicochemical; conditions: stabilizer 0.05%
Protocol: as §1, §2
Photostabilization Results of Natural Tocopherols in Ethanolic Solution

[6] = Photostability of β carotene in lotion under sun simulator; conditions: stabilizer 0.2%, β carotene 0.02%
[7] = Photostability of Guaiazulene in a shampoo formulation under sun simulator; format: physicochemical; conditions: stabilizer 0.1% in the shampoo
Protocol: In Formulation: Samples are prepared as ultrathin films between two quartz plates as to obtain a minimum of 90% light transmission over the entire spectrum range of non absorbing chromophores. For example, ingredients which absorb only in the UV will be tested in formulation to obtain a minimum of 90% light transmission over the visible range. Samples are then irradiated under sun simulator (754 W/m^2, typically 2 MED/h) for given times and light absorption spectra recorded at each time. The remaining percentage of photosensitive compounds is calculated from the light absorption maximum (λmax) of the corresponding peak in the absorption spectrum.
as §2
Formulation Used for the Study Described in Example-5
Procedure: Combine A and heat to 70–75° C., except for U-care JR-400. Disperse U-care JR-400 in A under agitation. Add ingredients of phase B one by one at 70° C. Add phase C at 40° C. Premix Phase D and add to batch at 40° C. At 35° C. add phase E. Adjust pH (˜6.5) and viscosity with phase F.

[8] = Photostabilization and color change of Vanillin in ethanolic solution under sun simulator; format: physicochemical; conditions: for Color change of Vanillin in solution (new light absorption band around 390 nm, yellow color): with and without stabilizer, FIG. 1; for Relative absorption of Vanillin at 281 nm (%): ethanolic solution
Protocol: as §1, with “Solutions are exposed to a sun simulator (754 W/m^2, 2 MED/h,) for various durations and light absorption spectra recorded for each sample at given times.” left out
as §2
Photostabilization Results of Vanillin in Ethanolic Solution
Color Change of Vanillin in Solution Under Sun Simulator With and Without Diethylhexyl Syringylidene Malorate in Solution
Photostabilization Results of Vanillin in Ethanolic Solution with isoamyl-alpha-acetyl-3,5-dimethoxy-4-hydroxy cinnamate

O=C1O[C@H]([C@@H](O)CO)C(O)=C1O [Ascorbic acid, reference compound]
Singlet oxygen scavenging behaviour [1]: pro-oxidant | IC50% (μg/ml), singlet oxygen quenching ability [1]: Pro-oxidant

Cc1c(C)c2c(c(C)c1O)CCC(C)(C(=O)O)O2 (stereo not drawn) [Trolox C, S-hydroxy-tetramethylchroman carboxylic acid, reference compound]
IC50% (μg/ml), singlet oxygen quenching ability [1]: 88 µg/mL

COc1cc(C=C(C(C)=O)C(=O)OCCC(C)C)cc(OC)c1O [Eusolex ASA ™, Isoamyl alpha acetyl-3,5 dimethoxy 4 hydroxy benzylidene malonate]
Efficiency as an antioxidant (ranking) [1]: best efficiency as an antioxidant | Singlet oxygen scavenging behaviour [1]: efficient singlet oxygen scavengers, better than Vitamin E | IC50% (μg/ml), singlet oxygen quenching ability [1]: 61 µg/mL

CC1CCC(C(C)C)C(OC(=O)c2ccccc2N)C1 (stereo not drawn) [Menthyl anthranilate]
Color change of Menthyl anthranilate (new light absorption band around 390 nm, yellow color) [2]: a new light absorption band for menthyl antranillate appears around 390 nm

CC1=C(/C=C/C(C)=C/C=C/C(C)=C/C=C/C=C(C)/C=C/C=C(C)/C=C/C2=C(C)CCCC2(C)C)C(C)(C)CCC1 [β-carotene]
Stability of β-carotene in ambient light [3]: degrades in ambient light at room temperature storage

Cc1ccc(C(C)C)cc2c(C)ccc1-2 [Guaiazulene]
Relative absorption of Guaiazulene at 600 nm (%) ([4]; 0 MED): 100% | Relative absorption of Guaiazulene at 600 nm (%) ([4]; 2 MED): 83% | Relative absorption of Guaiazulene at 600 nm (%) ([4]; 5 MED): 43% | Relative absorption of Guaiazulene at 600 nm (%) ([4]; 10 MED): 6% | Guaiazulene lost when exposed to solar simulator ([4]; total energy of 100 mJ/cm^2): ~90%

CCOS(=O)(=O)[O-].CCOS(=O)(=O)[O-].CC[N+](C)(C)CCCNC(=O)C(=Cc1cc(OC)c(O)c(OC)c1)C(=O)NCCC[N+](C)(C)CC [Eusolex HP ™, Bis-N-[3′-(N′,N′-Dimethylethylammonium)propyl]-3,5-dimethoxy-4-hydroxy benzylidene malonamide bis ethyl sulfate]
Singlet oxygen scavenging behaviour [1]: efficient singlet oxygen scavengers, better than Vitamin E | IC50% (μg/ml), singlet oxygen quenching ability [1]: 104 µg/mL

CCCCC(CC)COC(=O)C(=Cc1cc(OC)c(O)c(OC)c1)C(=O)OCC(CC)CCCC (stereo not drawn) [Diethylhexyl syringylidene malonate, Di-2-ethylhexyl 3,5 dimethoxy 4 hydroxy benzylidene malonate]
Effect of stabilizer on photostability of Tocopherols in solution [5]: clear improvement in the photostability of Tocopherols | Effect of stabilizer on photostability of β carotene in lotion [6]: clear improvement in the photostability of β carotene | Effect of stabilizer on photostability of Guaiazulene in shampoo [7]: clear improvement in the photostability of Guaiazulene | Color change of Vanillin in solution (new light absorption band around 390 nm, yellow color) [8]: does not appear | Singlet oxygen scavenging behaviour [1]: efficient singlet oxygen scavengers, better than Vitamin E | IC50% (μg/ml), singlet oxygen quenching ability [1]: 80 µg/mL | Color change of Menthyl anthranilate (new light absorption band around 390 nm, yellow color) [2]: prevents any alteration/degradation of the fragrance

COc1cc(C=O)ccc1O [Vanillin]
Relative absorption of Vanillin at 281 nm (%) ([8]; 0 MED): 100% | Relative absorption of Vanillin at 281 nm (%) ([8]; 2 MED): 45% | Relative absorption of Vanillin at 281 nm (%) ([8]; 5 MED): 40% | Relative absorption of Vanillin at 281 nm (%) ([8]; 10 MED): 36% | Color change of Vanillin in solution (new light absorption band around 390 nm, yellow color) [8]: a new light absorption band appears around 390 nm
